These results are taken from US9137998B2, “Pesticidal compositions and related methods” (DOW AGROSCIENCES LLC, priority 2013, dated 2015).

The test system of series [1] is Sweetpotato Whitefly-Crawler (Bemisia tabaci) (WF) (BEMITA). Briefly: Insecticidal test for Sweetpotato Whitefly-crawler (WF) in foliar spray assay on cotton plants. The following applies: 200 ppm foliar spray, graded after 9 days, Abbott corrected % control; for mortality at 200 ppm: Bemisia tabaci, 216 h, read-out: % Control (or Mortality) rating, WF. It is filed as in vivo. The procedure:
Cotton plants (Gossypium hirsutum) grown in 3-inch pots, with 1 small (4-5 cm) true leaves, were used as test substrate. The plants were infested with 200-400 whitefly eggs 4-5 days prior to chemical application. Four pots with individual plants were used for each treatment. Test compounds (2 mg) were dissolved in 1 mL of acetone solvent, forming stock solutions of 2000 ppm test compound. The stock solutions were diluted 10× with 0.025% Tween 20 in H2O (diluents) to obtain the solution at 200 ppm test compound. A hand-held aspirator-type sprayer was used for spraying a solution to both sides of cotton leaves until runoff. Reference plants (solvent check) were sprayed with the diluent only containing 10% by volume of acetone solvent. Treated plants were held in a holding room for 9 days at approximately 25° C. and ambient relative humidity (RH) prior to grading. Evaluation was conducted by counting the number of live 3-4 nymph stage per plant under a microscope. Percent control was measured by using Abbott's correction formula (W. S. Abbott, “A Method of Computing the Effectiveness of an Insecticide” J. Econ. Entomol. 18 (1925), pp. 265-26′7) as follows. Corrected % Control=100*(X−Y)/X
X=No. of live nymphs on solvent check plants and
Y=No. of live nymphs on treated plants. […]

The subject of series [2] is Green Peach Aphid (Myzus persicae) (GPA) (MYZUPE). Briefly: Bioassay for Green Peach Aphid (GPA), foliar spray on cabbage seedlings. The format is in vivo. The note with it: 200 ppm foliar spray, graded after three days, Abbott corrected % control; for mortality at 200 ppm: Myzus persicae, 72 h, read-out: % Control (or Mortality) rating, GPA. The method, then: Cabbage seedlings grown in 3-inch pots, with 2-3 small (3-5 cm) true leaves, were used as test substrate. The seedlings were infested with 20-50 GPA (wingless adult and nymph stages) one day prior to chemical application. Four pots with individual seedlings were used for each treatment. Test compounds (2 mg) were dissolved in 2 mL of acetone/methanol (1:1) solvent, forming stock solutions of 1000 ppm test compound. The stock solutions were diluted 5× with 0.025% Tween 20 in H2O to obtain the solution at 200 ppm test compound. A hand-held aspirator-type sprayer was used for spraying a solution to both sides of […] leaves until runoff. Reference plants (solvent check) were sprayed with the diluent only containing 20% by volume of acetone/methanol (1:1) solvent. Treated plants were held in a holding room for three days at approximately 25° C. and ambient relative humidity (RH) prior to grading. Evaluation was conducted by counting the number of live aphids per plant under a microscope. Percent control was measured by using Abbott's correction formula (W. S. Abbott, “A Method of Computing the Effectiveness of an Insecticide” J. Econ. Entomol. 18 (1925), pp. 265-267) as follows. Corrected % Control=100*(X−Y)/X
X=No. of live aphids on solvent check plants and
Y=No. of live aphids on treated plants
Biological Data for Green Peach Aphid (GPA) (MYZUPE) and Sweetpotato Whitefly-crawler (WF) (BEMITA)” (See Table Section).

As to “2-Methyl-N-(4-methyl-2-(pyridin-3-yl)thiazol-5-yl)-3-(methylsulfinyl)-N-(prop-2-yn-1-yl) propanamide [Compound P5]”, the “% Control (or Mortality) rating, WF” value in series [1] was “A (80-100)”. For the same molecule, the “% Control (or Mortality) rating, GPA” value in series [2] is given as “A (80-100)”.
As for “4-Chloro-2-(5-fluoropyridin-3-yl)-N-(prop-2-yn-1-yl)thiazol-5-amine hydrochloride [CA1]”, the “% Control (or Mortality) rating, WF” value in series [1] is “B (More than 0-Less than 80)”. Moreover, the “% Control (or Mortality) rating, GPA” value in series [2] is on record as “B (More than 0-Less than 80)”.
As to “4-Chloro-N-(prop-2-yn-1-yl)-2-(pyrimidin-5-yl)thiazol-5-amine hydrochloride [CA2]”, the “% Control (or Mortality) rating, WF” value in series [1] is given as “B (More than 0-Less than 80)”. The “% Control (or Mortality) rating, GPA” value in series [2] is given as “B (More than 0-Less than 80)”.
As to `C#CCN(C(=O)OC(C)(C)C)c1sc(Cl)nc1Cl` [CA3, tert-butyl (2,4-dichlorothiazol-5-yl)(prop-2-yn-1-yl)carbamate], in series [2], the mortality at 200 ppm is under 0%.
Regarding `C#CC(C)N(C(=O)OC(C)(C)C)c1sc(Br)nc1C` (stereo not shown) [CA5, tert-butyl (2-bromo-4-methylthiazol-5-yl)(but-3-yn-2-yl)carbamate], the mortality at 200 ppm in series [1] and in series [2] was 0 to 80% throughout.
As to `CC#CCN(C(=O)OC(C)(C)C)c1sc(Br)nc1C` [CA6, tert-Butyl (2-bromo-4-methylthiazol-5-yl)(but-2-yn-1-yl)carbamate], the results for the mortality at 200 ppm in series [1] and in series [2] were under 0% and 0 to 80%, respectively.
In the same order, the values of `C#CCN(C(=O)OC(C)(C)C)c1sc(-c2cccnc2)nc1C` [CA7, tert-Butyl (4-methyl-2-(pyridin-3-yl)thiazol-5-yl)(prop-2-yn-1-yl) carbamate] are 80 to 100% and 80 to 100%.
`C#CCN(C(=O)OC(C)(C)C)c1sc(-c2cncc(F)c2)nc1C` [CA8, tert-Butyl (2-(5-fluoropyridin-3-yl)-4-methylthiazol-5-yl)(prop-2-yn-1-yl) carbamate]: the mortality at 200 ppm was 80 to 100% in series [1] and 0 to 80% in series [2].
For `C#CCN(C(=O)OC(C)(C)C)c1sc(-c2cncc(F)c2)nc1Cl` [CA9, tert-Butyl (4-chloro-2-(5-fluoropyridin-3-yl)thiazol-5-yl)(prop-2-yn-1-yl) carbamate] the same measures were 80 to 100% and 80 to 100%.
For `C#CC(C)N(C(=O)OC(C)(C)C)c1sc(-c2cccnc2)nc1C` (stereo not shown) [CA12, tert-Butyl but-3-yn-2-yl(4-methyl-2-(pyridin-3-yl)thiazol-5-yl)carbamate] the same measures were 80 to 100% and 80 to 100%.
Consider `C#CCNc1sc(-c2cccnc2)nc1C` [CA14, 4-Methyl-N-(prop-2-yn-1-yl)-2-(pyridin-3-yl)thiazol-5-amine], for which the mortality at 200 ppm in series [1] and in series [2] was 0 to 80% in each case.
Take `C#CCN(C(=O)OC(C)(C)C)c1sc(-c2cccnc2)nc1Cl` [Compound C3, tert-butyl (4-chloro-2-(pyridin-3-yl)thiazol-5-yl)(prop-2-yn-1-yl)carbamate]: the mortality at 200 ppm in series [1] and in series [2] was 80 to 100% throughout.
On to `C#CCN(C(=O)C1CC1)c1sc(-c2cccnc2)nc1Cl` [Compound F2, N-(4-Chloro-2-(pyridin-3-yl)thiazol-5-yl)-N-(prop-2-yn-1-yl)cyclopropane carboxamide], for which the mortality at 200 ppm in series [1] and in series [2] was 80 to 100% throughout.
For the molecule `C#CCN(C(=O)CC(SC)C(F)(F)F)c1sc(-c2cccnc2)nc1Cl` (stereo not shown) [Compound F3, N-(4-Chloro-2-(pyridin-3-yl)thiazol-5-yl)-4,4,4-trifluoro-3-(methylthio)-N-(prop-2-yn-1-yl) butanamide], the mortality at 200 ppm in series [1] and in series [2] was 80 to 100% throughout.
With `C#CCN(C(=O)CSC)c1sc(-c2cccnc2)nc1Cl` [Compound F4, N-(4-Chloro-2-(pyridin-3-yl)thiazol-5-yl)-2-(methylthio)-N-(prop-2-yn-1-yl)acetamide], the mortality at 200 ppm in series [1] and in series [2] was 80 to 100% in each case.
As for `C#CCN(C(=O)C1CC1(F)F)c1sc(-c2cccnc2)nc1Cl` (stereo not shown) [Compound F5, N-(4-chloro-2-(pyridin-3-yl)thiazol-5-yl)-2,2-difluoro-N-(prop-2-yn-1-yl)cyclopropanecarboxamide], the mortality at 200 ppm in series [1] and in series [2] was 80 to 100% throughout.
As for `C#CCN(C(=O)C(C)SC)c1sc(-c2cccnc2)nc1Cl` (stereo not shown) [Compound F6, N-(4-chloro-2-(pyridin-3-yl)thiazol-5-yl)-2-(methylthio)-N-(prop-2-yn-1-yl)propanamide], the mortality at 200 ppm in series [1] and in series [2] was 80 to 100% throughout.
With `C#CCN(C(=O)CCSC)c1sc(-c2cccnc2)nc1Cl` [Compound F7, N-(4-chloro-2-(pyridin-3-yl)thiazol-5-yl)-3-(methylthio)-N-(prop-2-yn-1-yl)propanamide], the mortality at 200 ppm in series [1] and in series [2] was 80 to 100% each time.
With `C#CCN(C(=O)CCSCC1CC1(F)F)c1sc(-c2cccnc2)nc1Cl` (stereo not shown) [Compound F8, N-(4-Chloro-2-(pyridin-3-yl)thiazol-5-yl)-3--(((2,2-difluorocyclopropyl)methyl)thio)-N-(prop-2-yn-1-yl)propanamide], the mortality at 200 ppm in series [1] and in series [2] was 80 to 100% in each case.
Regarding `C#CCN(C(=O)C(C)CSC)c1sc(-c2cccnc2)nc1Cl` (stereo not shown) [Compound F9, N-(4-chloro-2-(pyridin-3-yl)thiazol-5-yl)-2-methyl-3-(methylthio)-N-(prop-2-yn-1-yl)propanamide], the mortality at 200 ppm in series [1] and in series [2] was 80 to 100% each time.
For `C#CCN(C(=O)CCSC)c1sc(-c2cccnc2)nc1C` [Compound P1, N-(4-Methyl-2-(pyridin-3-yl)thiazol-5-yl)-3-(methylthio)-N-(prop-2-yn-1-yl)propanamide], the mortality at 200 ppm in series [1] and in series [2] was 80 to 100% in each case.
For `C#CCN(C(=O)C(C)CSC)c1sc(-c2cccnc2)nc1C` (stereo not shown) [Compound P2, 2-Methyl-N-(4-methyl-2-(pyridin-3-yl)thiazol-5-yl)-3-(methylthio)-N-(prop-2-yn-1-yl) propanamide], the mortality at 200 ppm in series [1] and in series [2] was 80 to 100% in each case.
`C#CCN(C(=O)CC[S+](C)[O-])c1sc(-c2cccnc2)nc1C` (stereo not shown) [Compound P3, N-(4-Methyl-2-(pyridin-3-yl)thiazol-5-yl)-3-(methylsulfinyl)-N-(prop-2-yn-1-yl)propanamide]: the mortality at 200 ppm in series [1] and in series [2] was 80 to 100% in each case.
Turning to `C#CCN(C(=O)CCS(C)(=O)=O)c1sc(-c2cccnc2)nc1C` [Compound P4, N-(4-Methyl-2-(pyridin-3-yl)thiazol-5-yl)-3-(methylsulfonyl)-N-(prop-2-yn-1-yl)propanamide], the mortality at 200 ppm in series [1] and in series [2] was 80 to 100% throughout.
In the case of `C#CCN(C(=O)CCSCCC(F)(F)F)c1sc(-c2cccnc2)nc1C` [Compound P6, N-(4-Methyl-2-(pyridin-3-yl)thiazol-5-yl)-N-(prop-2-yn-1-yl)-3-((3,3,3-trifluoropropyl)thio) propanamide], the mortality at 200 ppm in series [1] fell in the range of 80 to 100%.
As to `C#CCN(C(=O)CC[S+]([O-])CCC(F)(F)F)c1sc(-c2cccnc2)nc1C` (stereo not shown) [Compound P7, N-(4-Methyl-2-(pyridin-3-yl)thiazol-5-yl)-N-(prop-2-yn-1-yl)-3-((3,3,3-trifluoropropyl)sulfinyl) propanamide], the mortality at 200 ppm in series [1] and in series [2] was 80 to 100% each time.
As for `C#CCN(C(=O)CCS(=O)(=O)CCC(F)(F)F)c1sc(-c2cccnc2)nc1C` [Compound P8, N-(4-Methyl-2-(pyridin-3-yl)thiazol-5-yl)-N-(prop-2-yn-1-yl)-3-((3,3,3-trifluoropropyl)sulfonyl) propanamide], the mortality at 200 ppm in series [1] and in series [2] was 80 to 100% in each case.

Broadly, the mortality is the share of the test organisms that died.
